# Patent US9107948B2, “Compounds for diagnosing diseases associated with the expression of MUC5AC” (Guerbet, priority 2010, dated 2015)
# “And” between values parts separate entries of the source, which are not always exact repeats. Equal values may be shown once. Positions of bridges follow the written chain, without caps; N, C: chain ends. Residues, ends and D or L forms follow the SMILES beside them. No end group written: not given here.
# What was measured:
# [1] = target: T1, MUC2 glycoprotein (Homo sapiens, UniProt Q02817); test: Labeling of colonic adenoma sections, recognition of MUC2; details: FIG. 4
# T1 construct: Sections of healthy gastric and colonic mucosae and of human colorectal adenoma; from tissue; host or cells: paraffin sections of human colonic adenoma
# Experimental: (§1) Sections of healthy gastric and colonic mucosae and of human colorectal adenoma (5 μm thick) were fixed for 24 h with 4% paraformaldehyde and embedded in paraffin. For the labeling, the sections were first of all deparaffinized in toluene and rehydrated in 95% alcohol. After rinsing in water, the slides are brought to boiling for 10 minutes in a citrate buffer (50 mM, pH 4). Once the temperature of the buffer has returned to 25-30° C., the slides are then rinsed with PBS and then successively incubated for 15 minutes in a 0.15% hydrogen peroxide (H2O2) solution and a kit for blocking the endogenous biotin for 1 h. The sections are then blocked using a milk-enriched buffer for 1 h at ambient temperature, and are then incubated at 4° C. for 18 h with the peptides at various concentrations (20 μM, 10 μM, 1 μM, 0.2 μM, 0.04 μM) or the antibodies (MUC5AC: PM8 at a 1/100 dilution and MUC2: Lum2-3 at a 1/100 dilution) diluted in PBS. The biotinylated peptides bound to the target are visualized using goat anti-biotin antibodies incubated for one hour at ambient temperature and then diluted in PBS at 1 μg/ml. A second incubation for one hour at ambient temperature is carried out in the presence of peroxidase-labeled anti-goat antibodies at 0.2 μg/ml diluted in PBS supplemented with 0.1% of Tween-20. […]
# [2] = target: T2, MUC5AC (Homo sapiens, UniProt P98088); test: Labeling of tissue sections with biotinylated peptide (specificity); details: FIG. 4
# T2 construct: Sections of healthy gastric and colonic mucosae and of human colorectal adenoma; from tissue; host or cells: paraffin sections of human gastric epithelium and colorectal adenoma
# Experimental: as §1
# [3] = target: rat MUC5AC glycoprotein; test: ELISA on MUC5AC purified from rat stomach; assay type: binding; details: ELISA (FIG. 2), read-out: apparent dissociation constant K*d
# Experimental: (§2) The interaction between the peptide and MUC5AC is evaluated by means of an ELISA assay. The mucin MUC5AC (purified from pieces of human tumor on the basis of mucin extraction and purification protocols described in literature) is immobilized on a plate at the concentration of 12.5 μg/ml overnight at 4° C. The nonspecific sites are then saturated in a buffer enriched with milk, for 2 hours at 4° C. After several rinses, the peptide CPSIYPLLC (SEQ ID No: 2) coupled to biotin is incubated at increasing concentrations (10^−3M and 10^−6M) for 2 hours at 37° C. The biotinylated peptides bound to MUC5AC are visualized using goat anti-biotin antibodies incubated for one hour at ambient temperature and then diluted in PBS at 1 μg/ml. After removal of the unbound antibodies, a second incubation for one hour at ambient temperature is carried out in the presence of peroxidase-labeled anti-goat antibodies at 0.2 μg/ml, diluted in PBS supplemented with 0.1% of Tween-20. The peroxidase coloration reaction is carried out in the presence of H2O2-enriched ABTS. The measurement of the OD at 405 nm makes it possible to calculate the K*d MUC5AC value. The interaction between the peptide and MUC5AC is also evaluated by means of the previously described ELISA assay on the mucin MUC5AC purified beforehand from mouse and rat stomach.
# [4] = target: mouse MUC5AC glycoprotein; test: ELISA on MUC5AC purified from mouse stomach; assay type: binding; details: ELISA (FIG. 2), read-out: apparent dissociation constant K*d
# Experimental: as §2
# [5] = system: HT29-5M21 cells (MUC5AC cells); test: USPIO binding test on colonic cell model, iron assay by relaxometry; assay type: cell-based, human; details: increasing concentrations 1/2/4/8 mM iron, 1 H at 37° C.
# Experimental: (§3) After 21 days of culture for HT29-5M21 cells (MUC5AC cells), the literature reports that MUC5AC is massively expressed. […] The cells are rinsed with PBS at 4° C. and then directly brought into contact with 0.5 ml of USPIO diluted in PBS, for 1 H at 37° C. (incubator, 5% CO2). The USPIOs are tested at various iron concentrations of 1/2/4/8 mM on each of the lines. After the supernatant has been drawn off, the cells are washed twice with PBS and then scraped so as to subsequently be taken up with 250 μl of PBS (twice). The suspensions are subsequently freeze-dried and then taken up with 100 μl of a 5N HCl solution for 4 H at 80° C. in a water bath. The assay is then carried out using Paris reagent, before carrying out the relaxometry (Bruiser Minispec 60 MHz). The secretion of MUC5AC by the HT29 model and the absence of secretion with HCT116 were verified in the study.
# [6] = Particle size (PCS) and magnetic characterization; assay type: physicochemical
# Experimental: Determined by PCS (Malvern 4700 instrument, laser 488 nm at 90°) on a sample diluted to ˜1 millimolar with water for injection filtered through 0.22 μm.
# [7] = system: HT295M21 and HCT116 xenografts; test: Detection of USPIOs on tumor xenograft tissue after in vivo injection (anti-PEG antibody); set-up: species or system mice
# Description: (§4) In the experiments carried out, the PEG750-C60C was detected using the anti-PEG antibody on HT295M21 xenograft, on HCT116 xenograft and on a section of mouse stomach without counterstaining. The control compound was detected on a section of mouse stomach without counterstaining. The sections were visualized in parallel with an anti-MUC5AC antibody on HT295M21 and HCT116.
# [8] = system: MUC5AC-positive tumor (HT29 5M21 xenograft); test: Molecular MRI (RARE, 7T) of tumor in mice bearing MUC5AC-positive tumor; assay type: in vivo
# Experimental: (§5) The selected imaging parameters are the following: • RARE (rapid acquisition with relaxation enhancement) sequence (7T) • TR/TEeff=3000/48.7 ms, • RARE factor=4, • NEX=4, • Matrix=256×256 • FOV=2.3 cm • slice thickness=1 mm • 20 axial slices • spatial resolution=90 μm • acquisition time=12 min 48 s Mice: • bearing an MUC5AC-positive tumor were injected with PEG750-C60c (100 μmol/kg), • bearing an MUC5AC-positive tumor were injected with the control compound (100 μmol/kg) and • bearing an MUC5AC-negative tumor were injected with PEG750-C60c (100 μmol/kg).
# [9] = system: HCT116 cells (control cells, MUC5AC-negative); test: USPIO binding test on colonic control cells, iron assay by relaxometry; assay type: cell-based, human; details: control cells HCT116, 1/2/4/8 mM iron, 1 H at 37° C.
# Experimental: as §3
# [10] = system: MUC5AC-negative tumor (HCT116 xenograft); test: Molecular MRI (RARE, 7T) of tumor in mice bearing MUC5AC-negative tumor; assay type: in vivo
# Experimental: as §5
# [11] = system: mouse gastric tissue; test: Detection of USPIOs on mouse stomach sections after in vivo injection (anti-PEG antibody); details: section of mouse stomach
# Description: as §4
# [12] = system: mucin MUC5AC in the stomach; test: Molecular MRI (RARE, 7T) of the stomach of tumor-bearing mice; assay type: in vivo; details: mice bearing MUC5AC-positive or -negative tumor
# Experimental: as §5
# MUC5AC. […] Indeed, using PEG750-C60c at equal concentration in animals having tumors with an opposite MUC5AC expression profile, but having the same mucin secretion characteristic in the stomach, a differential response was clearly observed in the tumor, but not in the stomach.
# [13] = Plasma kinetics: iron concentration by relaxometry in plasma of imaged mice; assay type: in vivo; details: 1 h-1 h 30 after injection
# Description: IV.2 Plasma Kinetics: Calculation of the Concentration of USPIO Contained in the Plasma of the Imaged Mice
# It can be observed in table 3 that the iron concentrations are proportional to the dose of product injected.
# [14] = Relaxivity measurements; assay type: physicochemical; details: 37° C.
# Experimental: […] The longitudinal relaxation time T1 is measured using an inversion recovery sequence and the transverse relaxation time T2 is measured using a CPMG technique.
# The relaxation rates R1 (=1/T1) and R2 (=1/T2) were calculated for various concentrations of total metal (ranging from 0.1×10^−3 to 1×10^−3 mol/l) in aqueous solution at 37° C. The correlation between R1 or R2 as a function of the concentration is linear, and the slope represents the relaxivity r1 (R1/C) or r2 (R2/C) expressed as (1/second)×(1/mmol/l), i.e. (mM^−1·s^−1).
molecule,measurement,setting,value
"CC[C@H](C)[C@@H]1NC(=O)[C@H](CO)NC(=O)[C@@H]2CCCN2C(=O)[C@@H](N)CSSC[C@@H](C(N)=O)NC(=O)[C@H](CC(C)C)NC(=O)[C@H](CC(C)C)NC(=O)[C@@H]2CCCN2C(=O)[C@H](Cc2ccc(O)cc2)NC1=O [peptide CPSIYPLLC, Cys-Pro-Ser-He-Tyr-Pro-Leu-Leu-Cys] (H-CPSIYPLLC-NH2; disulfide 1-9; N-terminus and C-terminus assumed)",recognition of the MUC2 glycoprotein on sections of colonic adenoma,[1],absence of recognition
same,labeling of sections of healthy human gastric epithelia,[2],demonstrate the specificity
same,Kd,[3],659 µM
same,Kd,[4],549 µM
"PEG750-C60c (CPSIYPLLC; not fully specified; cysteine pairing not given here; also: PEG750 attached, site not given here, coupled to iron particle)",iron concentration on the cells,[5],significantly increases
same,Magnetic diameter,[6],7.2 nm
same,Magnetization at saturation (magn.),[6],70 Am^2/Kg
same,hydrodynamic diameter Z ave (PCS),[6],28 nm
same,accumulation in the tumors,[7],only when they secrete MUC5AC
same,signal variation in the tumor (ΔSI),"[8]; 20 μmol of iron/kg, post-contrast",−10%
same,signal variation in the tumor (ΔSI),[8]; 100 μmol of iron/kg,−15%
same,MRI image contrast of the tumor,[8]; 100 μmol/kg,negative contrast image
same,iron concentration on the cells,[9],does not change proportionally
same,MRI image contrast of the tumor,[10]; 100 μmol/kg,no variation in contrast
same,change of signal in the tumor,[10]; same conditions (20 and 100 μmol of iron/kg),no change or a slight increase
same,labeling / accumulation in the mouse gastric tissue,[11],specific labeling
same,MRI image of the gastric region in contact with the lumen,[12],clear darkening
same,Iron concentration in the plasma,"[13]; MUC5AC-negative mice, 20 μmol Fe/kg",471.5 µmol/L
same,Iron concentration in the plasma,"[13]; MUC5AC-negative mice, 20 μmol Fe/kg, listed as PEG750-C60C",442.5 µmol/L and 350.7 µmol/L and 337 µmol/L
same,Iron concentration in the plasma,"[13]; MUC5AC-negative mice, 100 μmol Fe/kg",2806 µmol/L and 3638 µmol/L
same,Iron concentration in the plasma,"[13]; MUC5AC-positive mice, 20 μmol Fe/kg",486.8 µmol/L and 380 µmol/L
same,Iron concentration in the plasma,"[13]; MUC5AC-positive mice, 20 μmol Fe/kg, listed as PEG750-C60C",312.4 µmol/L
same,Iron concentration in the plasma,"[13]; MUC5AC-positive mice, 40 μmol Fe/kg",909.6 µmol/L
same,Iron concentration in the plasma,"[13]; MUC5AC-positive mice, 100 μmol Fe/kg",1555.5 µmol/L
same,Iron concentration in the plasma,"[13]; MUC5AC-positive mice, 100 μmol Fe/kg, listed as PEG750-C60C",2590 µmol/L and 3871 µmol/L and 1959 µmol/L
same,relaxivity r1,[14]; 20 MHz,30.54 s⁻¹ mM⁻¹
same,relaxivity r1,[14]; 60 MHz,14.94 s⁻¹ mM⁻¹
